The values that follow come from ChEMBL document CHEMBL3991601, “The target landscape of clinical kinase drugs” (Science, 2017).

In assay [1] the target is Cyclin-dependent kinase 13 (Homo sapiens, UniProt Q14004).
Assay [2] addresses Tyrosine-protein kinase HCK (Homo sapiens, UniProt P08631).
Assay [3] concerns the target T1, Mitogen-activated protein kinase kinase kinase 5 (Homo sapiens, UniProt Q99683).
T1 sequence (Q99683 whole entry): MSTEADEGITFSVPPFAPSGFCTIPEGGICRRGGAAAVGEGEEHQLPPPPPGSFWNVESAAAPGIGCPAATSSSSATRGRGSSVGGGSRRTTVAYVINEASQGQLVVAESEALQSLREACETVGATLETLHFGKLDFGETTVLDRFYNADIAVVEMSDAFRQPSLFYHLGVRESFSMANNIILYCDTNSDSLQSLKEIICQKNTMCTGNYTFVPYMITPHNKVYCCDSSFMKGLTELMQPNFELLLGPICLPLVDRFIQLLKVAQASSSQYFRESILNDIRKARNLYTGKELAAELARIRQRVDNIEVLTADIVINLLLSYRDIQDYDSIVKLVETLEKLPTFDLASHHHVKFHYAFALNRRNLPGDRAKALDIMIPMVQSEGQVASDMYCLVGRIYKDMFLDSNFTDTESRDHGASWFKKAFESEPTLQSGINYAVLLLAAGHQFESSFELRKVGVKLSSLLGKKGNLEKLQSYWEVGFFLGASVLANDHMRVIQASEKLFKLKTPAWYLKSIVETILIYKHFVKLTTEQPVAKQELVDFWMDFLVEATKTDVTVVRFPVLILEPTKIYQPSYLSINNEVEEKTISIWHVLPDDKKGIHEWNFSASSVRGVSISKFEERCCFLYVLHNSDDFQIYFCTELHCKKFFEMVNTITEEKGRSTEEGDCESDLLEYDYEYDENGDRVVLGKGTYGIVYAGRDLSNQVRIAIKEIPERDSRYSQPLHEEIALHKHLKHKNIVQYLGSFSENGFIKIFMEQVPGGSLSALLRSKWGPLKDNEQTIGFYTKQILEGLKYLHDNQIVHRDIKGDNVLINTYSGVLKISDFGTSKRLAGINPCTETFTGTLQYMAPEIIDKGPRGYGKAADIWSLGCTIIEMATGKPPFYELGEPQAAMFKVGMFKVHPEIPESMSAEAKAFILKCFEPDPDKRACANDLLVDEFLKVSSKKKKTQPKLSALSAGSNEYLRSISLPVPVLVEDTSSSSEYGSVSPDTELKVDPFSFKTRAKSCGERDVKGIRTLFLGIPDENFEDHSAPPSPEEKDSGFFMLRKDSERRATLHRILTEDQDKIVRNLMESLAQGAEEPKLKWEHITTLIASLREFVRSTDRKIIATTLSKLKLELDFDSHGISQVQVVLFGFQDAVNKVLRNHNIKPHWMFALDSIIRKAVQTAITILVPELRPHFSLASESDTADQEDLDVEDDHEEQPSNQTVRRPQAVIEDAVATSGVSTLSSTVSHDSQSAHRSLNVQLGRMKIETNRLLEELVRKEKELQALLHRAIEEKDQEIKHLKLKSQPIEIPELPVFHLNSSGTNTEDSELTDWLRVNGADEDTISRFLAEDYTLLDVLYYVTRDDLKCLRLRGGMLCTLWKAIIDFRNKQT

The target of assay [4] is T2, Glycogen phosphorylase, brain form (Homo sapiens, UniProt P11216).
T2 sequence (P11216 whole entry): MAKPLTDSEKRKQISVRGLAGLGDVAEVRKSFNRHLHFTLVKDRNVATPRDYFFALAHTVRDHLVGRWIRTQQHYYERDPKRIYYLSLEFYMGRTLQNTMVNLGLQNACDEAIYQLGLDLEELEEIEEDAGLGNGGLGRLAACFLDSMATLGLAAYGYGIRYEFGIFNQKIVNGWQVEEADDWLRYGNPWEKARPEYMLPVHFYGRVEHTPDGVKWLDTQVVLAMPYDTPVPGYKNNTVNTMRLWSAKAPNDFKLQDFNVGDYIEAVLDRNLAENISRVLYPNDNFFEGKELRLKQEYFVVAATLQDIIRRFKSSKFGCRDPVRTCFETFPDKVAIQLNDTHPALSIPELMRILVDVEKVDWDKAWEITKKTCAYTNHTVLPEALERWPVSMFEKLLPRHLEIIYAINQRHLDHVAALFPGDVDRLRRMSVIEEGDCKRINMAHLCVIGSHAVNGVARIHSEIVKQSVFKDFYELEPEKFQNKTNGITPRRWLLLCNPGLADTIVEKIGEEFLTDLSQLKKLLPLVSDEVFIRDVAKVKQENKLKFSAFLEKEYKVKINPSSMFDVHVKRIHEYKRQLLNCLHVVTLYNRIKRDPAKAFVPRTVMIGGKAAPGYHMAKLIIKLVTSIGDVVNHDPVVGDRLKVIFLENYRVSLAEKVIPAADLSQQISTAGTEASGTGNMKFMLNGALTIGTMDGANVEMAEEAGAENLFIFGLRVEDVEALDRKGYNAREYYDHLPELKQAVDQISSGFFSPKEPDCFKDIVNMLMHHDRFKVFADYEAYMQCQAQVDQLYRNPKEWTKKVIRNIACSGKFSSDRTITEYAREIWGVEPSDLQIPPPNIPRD

In assay [5] the target is Receptor-interacting serine/threonine-protein kinase 3 (Homo sapiens, UniProt Q9Y572).
Receptor-interacting serine/threonine-protein kinase 3, sequence (Q9Y572 whole entry): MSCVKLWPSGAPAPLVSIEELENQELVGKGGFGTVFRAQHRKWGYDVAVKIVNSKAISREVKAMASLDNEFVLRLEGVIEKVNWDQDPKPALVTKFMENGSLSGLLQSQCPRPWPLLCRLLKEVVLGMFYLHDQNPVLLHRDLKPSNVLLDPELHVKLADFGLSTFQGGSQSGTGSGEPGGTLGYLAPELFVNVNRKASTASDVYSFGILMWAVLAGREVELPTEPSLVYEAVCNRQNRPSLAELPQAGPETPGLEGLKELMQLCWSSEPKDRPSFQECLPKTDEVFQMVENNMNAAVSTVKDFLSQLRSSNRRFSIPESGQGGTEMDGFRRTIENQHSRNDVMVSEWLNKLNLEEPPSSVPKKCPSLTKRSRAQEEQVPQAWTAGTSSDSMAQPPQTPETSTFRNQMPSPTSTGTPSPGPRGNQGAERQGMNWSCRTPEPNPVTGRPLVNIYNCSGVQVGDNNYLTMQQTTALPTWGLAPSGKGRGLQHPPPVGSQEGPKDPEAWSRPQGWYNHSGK
For assay [6], the target named is Mitogen-activated protein kinase kinase kinase 20 (Homo sapiens, UniProt Q9NYL2).
Mitogen-activated protein kinase kinase kinase 20, sequence (Q9NYL2 whole entry): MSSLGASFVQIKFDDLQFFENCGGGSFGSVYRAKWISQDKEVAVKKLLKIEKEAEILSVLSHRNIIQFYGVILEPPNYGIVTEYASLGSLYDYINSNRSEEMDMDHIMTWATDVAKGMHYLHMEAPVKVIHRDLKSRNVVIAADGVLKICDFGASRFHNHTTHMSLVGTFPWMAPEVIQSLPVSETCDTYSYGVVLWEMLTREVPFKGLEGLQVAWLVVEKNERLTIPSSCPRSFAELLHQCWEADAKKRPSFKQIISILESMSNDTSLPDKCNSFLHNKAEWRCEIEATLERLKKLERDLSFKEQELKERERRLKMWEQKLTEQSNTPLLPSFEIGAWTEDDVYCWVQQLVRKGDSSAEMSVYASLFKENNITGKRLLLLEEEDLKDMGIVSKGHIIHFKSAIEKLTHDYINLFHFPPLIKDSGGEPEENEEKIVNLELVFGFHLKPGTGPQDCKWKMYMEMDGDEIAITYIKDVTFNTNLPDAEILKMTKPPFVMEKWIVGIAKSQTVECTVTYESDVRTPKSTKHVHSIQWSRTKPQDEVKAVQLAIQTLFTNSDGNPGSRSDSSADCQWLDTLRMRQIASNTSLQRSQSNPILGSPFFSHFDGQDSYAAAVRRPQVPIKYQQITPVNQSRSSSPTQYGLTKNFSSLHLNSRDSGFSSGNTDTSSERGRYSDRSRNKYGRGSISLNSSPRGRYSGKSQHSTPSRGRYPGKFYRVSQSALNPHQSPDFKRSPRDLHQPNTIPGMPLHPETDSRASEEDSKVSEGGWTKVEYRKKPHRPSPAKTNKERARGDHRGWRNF

The source made the active and inactive calls. For most assays here, no stated cut-off is given here; in the data, actives have a measured Kd and inactives only a lower limit.

Tyrosine-protein kinase HCK, sequence (P08631 whole entry): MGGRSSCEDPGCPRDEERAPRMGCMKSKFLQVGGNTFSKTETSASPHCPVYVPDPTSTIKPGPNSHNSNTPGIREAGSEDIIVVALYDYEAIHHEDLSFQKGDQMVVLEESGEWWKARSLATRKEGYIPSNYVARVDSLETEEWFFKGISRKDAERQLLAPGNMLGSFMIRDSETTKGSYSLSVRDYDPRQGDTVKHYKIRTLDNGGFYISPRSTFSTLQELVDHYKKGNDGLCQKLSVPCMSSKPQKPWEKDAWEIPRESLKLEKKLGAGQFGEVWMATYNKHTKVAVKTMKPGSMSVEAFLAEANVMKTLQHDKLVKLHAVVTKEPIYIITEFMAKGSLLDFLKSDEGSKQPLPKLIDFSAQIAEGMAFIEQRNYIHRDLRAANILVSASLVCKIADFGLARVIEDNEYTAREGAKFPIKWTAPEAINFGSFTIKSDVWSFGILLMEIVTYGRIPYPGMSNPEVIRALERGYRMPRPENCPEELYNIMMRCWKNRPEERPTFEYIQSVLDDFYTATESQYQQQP
Cyclin-dependent kinase 13, sequence (Q14004 whole entry): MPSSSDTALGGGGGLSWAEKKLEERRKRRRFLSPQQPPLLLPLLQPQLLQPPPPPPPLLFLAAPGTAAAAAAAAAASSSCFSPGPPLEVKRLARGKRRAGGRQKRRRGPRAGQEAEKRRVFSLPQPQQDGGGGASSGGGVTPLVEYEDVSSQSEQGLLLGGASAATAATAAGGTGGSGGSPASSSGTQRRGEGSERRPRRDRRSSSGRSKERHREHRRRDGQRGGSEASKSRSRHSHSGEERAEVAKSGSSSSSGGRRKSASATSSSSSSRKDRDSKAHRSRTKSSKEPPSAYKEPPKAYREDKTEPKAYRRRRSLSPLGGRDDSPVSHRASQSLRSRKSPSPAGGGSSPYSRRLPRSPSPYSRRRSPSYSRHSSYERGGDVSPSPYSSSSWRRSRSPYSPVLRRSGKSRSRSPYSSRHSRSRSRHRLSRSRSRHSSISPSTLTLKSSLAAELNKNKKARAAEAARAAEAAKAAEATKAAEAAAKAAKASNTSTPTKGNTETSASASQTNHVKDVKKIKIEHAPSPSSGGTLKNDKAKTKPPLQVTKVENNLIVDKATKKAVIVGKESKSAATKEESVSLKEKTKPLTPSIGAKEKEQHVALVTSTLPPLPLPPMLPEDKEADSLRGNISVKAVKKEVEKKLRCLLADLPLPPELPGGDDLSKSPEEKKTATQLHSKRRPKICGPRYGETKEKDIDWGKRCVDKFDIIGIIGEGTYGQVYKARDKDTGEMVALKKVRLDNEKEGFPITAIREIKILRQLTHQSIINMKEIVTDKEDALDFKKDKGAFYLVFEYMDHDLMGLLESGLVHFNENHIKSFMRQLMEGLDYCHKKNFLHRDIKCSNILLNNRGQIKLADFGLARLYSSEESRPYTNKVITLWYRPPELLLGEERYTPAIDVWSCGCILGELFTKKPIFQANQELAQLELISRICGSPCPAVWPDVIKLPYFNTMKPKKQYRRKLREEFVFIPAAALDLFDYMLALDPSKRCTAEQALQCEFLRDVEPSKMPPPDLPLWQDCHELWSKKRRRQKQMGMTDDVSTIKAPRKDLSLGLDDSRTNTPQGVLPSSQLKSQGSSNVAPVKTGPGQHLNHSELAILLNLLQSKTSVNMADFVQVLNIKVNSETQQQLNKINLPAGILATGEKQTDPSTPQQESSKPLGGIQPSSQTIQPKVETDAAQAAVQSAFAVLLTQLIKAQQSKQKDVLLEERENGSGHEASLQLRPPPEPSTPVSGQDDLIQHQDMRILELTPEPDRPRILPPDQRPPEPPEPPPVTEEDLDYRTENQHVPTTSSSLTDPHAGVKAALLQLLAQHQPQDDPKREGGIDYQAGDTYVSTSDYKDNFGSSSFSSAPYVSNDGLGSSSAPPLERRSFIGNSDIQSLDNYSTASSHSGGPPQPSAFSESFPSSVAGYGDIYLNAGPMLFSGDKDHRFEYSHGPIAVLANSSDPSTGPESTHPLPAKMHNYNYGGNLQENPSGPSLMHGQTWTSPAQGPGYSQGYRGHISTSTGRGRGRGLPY

The term Kd denotes the equilibrium constant for the complex coming apart. `CN(C)C(=O)c1cc2cnc(Nc3ccc(N4CCNCC4)cn3)nc2n1C1CCCC1` [RIBOCICLIB]: the Kd in assay [1], in assay [2], in assay [3], in assay [4], in assay [5] and in assay [6] was > 30 µM (inactive) each time.
In the case of `O=C(Nc1ccc(-c2ccnc(Nc3ccc(N4CCOCC4)cc3)n2)cc1)C1CCCN1` (centres undefined) [XL-019], the Kd in assay [1], in assay [2], in assay [3], in assay [4], in assay [5] and in assay [6] was > 30 µM (inactive) each time.
As to `CNC(=O)CN1CCC(Oc2cc3c(Nc4cccc(Cl)c4F)ncnc3cc2OC)CC1` [SAPITINIB], the Kd is > 30 µM (inactive) in assay [1]; > 30 µM (inactive) in assay [2]; > 30 µM (inactive) in assay [3]; > 30 µM (inactive) in assay [4]; 1.17 µM (active) in assay [5]; > 30 µM (inactive) in assay [6].
For the molecule `Cc1cc([C@@H](C)Nc2ccccc2C(=O)O)c2nc(N3CCOCC3)cc(=O)n2c1` [AZD-6482], the Kd in assay [1], in assay [2], in assay [3], in assay [4], in assay [5] and in assay [6] was > 30 µM (inactive) in each case.
Take `CCN1CCN(Cc2ccc(-c3cc4c(N[C@H](C)c5ccccc5)ncnc4[nH]3)cc2)CC1` [AEE-788]: the Kd in assay [1] was > 30 µM (inactive); in assay [2], > 30 µM (inactive); in assay [3], > 30 µM (inactive); in assay [4], > 30 µM (inactive); in assay [5], > 30 µM (inactive); in assay [6], 13.6 µM (active).
For `CN1N=C(N)c2cn([C@@H]3O[C@H](COP(=O)(O)O)[C@@H](O)[C@H]3O)c3ncnc1c23` [TRICIRIBINE PHOSPHATE], the Kd in assay [1], in assay [2], in assay [3], in assay [4], in assay [5] and in assay [6] was > 30 µM (inactive) each time.
For the molecule `CC(=O)Nc1cccc(-n2c(=O)n(C3CC3)c(=O)c3c(Nc4ccc(I)cc4F)n(C)c(=O)c(C)c32)c1` [TRAMETINIB], the Kd in assay [1], in assay [2], in assay [3], in assay [4], in assay [5] and in assay [6] was > 30 µM (inactive) throughout.
Take `COCCNCc1ccc(-c2cc3nccc(Oc4ccc(NC(=S)NC(=O)Cc5ccc(F)cc5)cc4F)c3s2)nc1` [GLESATINIB]: the Kd in assay [1] was > 30 µM (inactive); in assay [2], 0.283 µM (active); in assay [3] it was > 30 µM (inactive); in assay [4] it was > 30 µM (inactive); in assay [5], > 30 µM (inactive); in assay [6], > 30 µM (inactive).
Take `CNS(=O)(=O)Nc1nccc(Cc2c(C)c3ccc(Oc4ncccn4)cc3oc2=O)c1F` [AVUTOMETINIB]: the Kd in assay [1], in assay [2], in assay [3], in assay [4], in assay [5] and in assay [6] was > 30 µM (inactive) each time.
